Measurements taken from article PMC5650530 (ACS chemical biology, 2017).
Read-outs that look alike come from different tables or passages of the source.

Columns and labels:
PTGR2 [1] = biological target: T1, PTGR2 (Homo sapiens, UniProt Q8N8N7); experiment: LiPIP; format: binding; conditions: KDT501 25 and 50 μM; A-DA or AEA-DA probe 10 μM; HEK293T cells
Target sequence in this assay (Q8N8N7 whole entry): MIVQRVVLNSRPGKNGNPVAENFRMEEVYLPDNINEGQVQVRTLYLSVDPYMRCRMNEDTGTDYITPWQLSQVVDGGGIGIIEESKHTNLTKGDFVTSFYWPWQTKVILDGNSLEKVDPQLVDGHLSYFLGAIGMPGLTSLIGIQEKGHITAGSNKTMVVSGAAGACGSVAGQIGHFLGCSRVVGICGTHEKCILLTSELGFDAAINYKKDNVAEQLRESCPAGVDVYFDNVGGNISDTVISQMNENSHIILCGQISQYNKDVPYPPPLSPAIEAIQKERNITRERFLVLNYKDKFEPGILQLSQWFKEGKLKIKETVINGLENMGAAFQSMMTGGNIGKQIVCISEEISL

BAIAP2 = biological target: T2, BAIAP2 (Homo sapiens, UniProt Q9UQB8); experiment: LiPIP; format: binding; conditions: KDT501 25 and 50 μM; A-DA or AEA-DA probe 10 μM; HEK293T cells
T2 sequence (Q9UQB8 1-552): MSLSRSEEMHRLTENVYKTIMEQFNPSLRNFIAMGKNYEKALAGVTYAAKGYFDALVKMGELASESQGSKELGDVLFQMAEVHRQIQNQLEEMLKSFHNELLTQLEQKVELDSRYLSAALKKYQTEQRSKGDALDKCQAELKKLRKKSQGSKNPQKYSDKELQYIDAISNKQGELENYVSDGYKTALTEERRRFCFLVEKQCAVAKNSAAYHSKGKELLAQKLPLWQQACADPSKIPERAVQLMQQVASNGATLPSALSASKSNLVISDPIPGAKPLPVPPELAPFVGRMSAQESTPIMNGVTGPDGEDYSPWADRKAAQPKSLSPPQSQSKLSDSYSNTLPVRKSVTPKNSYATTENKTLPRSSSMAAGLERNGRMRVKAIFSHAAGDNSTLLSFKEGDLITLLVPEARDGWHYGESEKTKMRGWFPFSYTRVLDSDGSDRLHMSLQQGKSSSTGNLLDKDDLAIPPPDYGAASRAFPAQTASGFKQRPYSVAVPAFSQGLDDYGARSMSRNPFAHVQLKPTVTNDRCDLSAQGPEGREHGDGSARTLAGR

PTGR2 [2] = biological target: T1, PTGR2; format: binding; conditions: read-out: IC50, blockade of A-DA probe labeling of recombinant PTGR2; transfected cell lysates; A-DA 5 μM; 95% CI 3.0–5.3 μM
Target sequence in this assay (Q8N8N7 whole entry, species assumed): as the sequence (Q8N8N7 whole entry) above

PTGR2 [3] = biological target: T1, PTGR2; experiment: 15-keto PGE2 substrate assay with recombinant PTGR2 protein; format: biochemical; conditions: read-out: IC50, inhibition of dhk-PGE2 production, 15-keto PGE2 and NADPH, 95% CI 4.4–16 μM
Target sequence in this assay (Q8N8N7 whole entry): as the sequence (Q8N8N7 whole entry) above

PTGR2 [4] = biological target: T1, PTGR2; experiment: 15-keto PGE2 reductase activity of PTGR2-transfected HEK293T cell lysates; format: biochemical; conditions: read-out: IC50, inhibition of 15-keto PGE2 reductase activity; lysates from HEK293T cells transfected with PTGR2; 95% CI 1.4–2.4 μM
Target sequence in this assay (Q8N8N7 whole entry, species assumed): as the sequence (Q8N8N7 whole entry) above

[5] = reference not given; cited from earlier work
PPAR-γ = conditions: cited from earlier work

CC(C)CCC(=O)[C@]1(O)C(=O)[C-](C(=O)CC(C)C)C(=O)[C@H]1CCC(C)C.[K+] (stereo partly shown) [KDT501]
blockade of lipid probe enrichment of PTGR2 (PTGR2 [1]): substantive blockade of enrichment
blockade of lipid probe enrichment of BAIAP2 (BAIAP2): substantive blockade of enrichment
IC50 (PTGR2 [2]): 4 µM
IC50 (PTGR2 [3]): 8.4 µM
IC50 (PTGR2 [4]): 1.8 µM
moderately potent activity in cells (concentration) [5]: 10 to 50 µM
agonism of PPAR-γ (PPAR-γ): weak agonist
